Activity calls are given as the source filed them. The calls are words filed in the database; no cut-off is given here. Starred links: 1 amine or outer side, 2 acyl side, 3 side chain; linkers in the order of their positions; H or OH if unused. Non-standard residues stand in square brackets, D forms with d. Residues, ends and D or L forms follow the SMILES beside them. dTrp(2-Me) = Cc1[nH]c2ccccc2c1C[C@@H](N)C(=O)O; azaTyr = O=C(N(Cc1ccc(O)cc1)N[*:1])[*:2]; azaPhe = O=C(N(Cc1ccccc1)N[*:1])[*:2]
Columns and labels:
[1] = target: Platelet glycoprotein 4 (Mus musculus) (UniProt Q08857); test: Modulation of CD36 in mouse J774A.1 cells assessed as inhibition of R-FSL1-induced NO over production at 1 uM preincubated for 1 hr followed by overnight R-FSL1 stimulation by DAN-fluorescence assay relative to control; assay type: cell-based
[2] = target: Platelet glycoprotein 4 (Mus musculus) (UniProt Q08857); test: Modulation of CD36 in mouse […] cells assessed as inhibition of R-FSL1-induced NO over production at 1 uM preincubated for 1 hr followed by overnight R-FSL1 stimulation by DAN-fluorescence assay relative to control; assay type: cell-based
[3] = target: Platelet glycoprotein 4 (Rattus norvegicus) (UniProt Q07969); test: Inhibition of photoactivatable [125I]-Tyr-Bpa-Ala-hexarelin binding to CD36 in Sprague-Dawley rat heart membranes after 60 mins by SDS-PAGE analysis relative to H-His-D-Trp-Ala-aza(3-hydroxy)Phe-D-Phe-Lys-NH2; assay type: cell membranes; conditions: Membrane
Platelet glycoprotein 4 = Platelet glycoprotein 4 (Rattus norvegicus, UniProt Q07969); test: Inhibition of photoactivatable [125I]-Tyr-Bpa-Ala-hexarelin binding to CD36 in Sprague-Dawley rat heart membranes after 60 mins by SDS-PAGE analysis; assay type: cell membranes, Membrane
Mus musculus = organism: Mus musculus; test: Anti-angiogenic activity in mouse sclera/choroid/retinal pigment epithelium complex assessed as reduction in microvascular sprouting at 1 uM after 24 hrs by microscopic analysis; assay type: functional
[4] = Pro-angiogenic activity in mouse sclera/choroid/retinal pigment epithelium complex assessed as increase in microvascular sprouting at 1 uM after 24 hrs by microscopic analysis; assay type: ADME

Platelet glycoprotein 4 (Mus musculus), sequence (Q08857 whole entry): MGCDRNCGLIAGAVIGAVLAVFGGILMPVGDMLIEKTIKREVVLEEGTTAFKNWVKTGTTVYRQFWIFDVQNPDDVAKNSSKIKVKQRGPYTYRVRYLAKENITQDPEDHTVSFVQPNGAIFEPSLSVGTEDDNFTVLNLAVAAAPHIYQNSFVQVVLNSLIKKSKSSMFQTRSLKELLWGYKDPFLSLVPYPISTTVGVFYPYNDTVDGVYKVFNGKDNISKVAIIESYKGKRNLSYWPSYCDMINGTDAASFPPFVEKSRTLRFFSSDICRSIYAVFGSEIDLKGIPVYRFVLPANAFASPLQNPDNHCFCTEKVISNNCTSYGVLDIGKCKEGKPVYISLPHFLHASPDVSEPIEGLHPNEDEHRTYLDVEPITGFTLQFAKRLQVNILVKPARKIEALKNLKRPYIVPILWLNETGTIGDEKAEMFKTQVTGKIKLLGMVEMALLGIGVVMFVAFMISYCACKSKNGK
Platelet glycoprotein 4, sequence (Q07969 whole entry): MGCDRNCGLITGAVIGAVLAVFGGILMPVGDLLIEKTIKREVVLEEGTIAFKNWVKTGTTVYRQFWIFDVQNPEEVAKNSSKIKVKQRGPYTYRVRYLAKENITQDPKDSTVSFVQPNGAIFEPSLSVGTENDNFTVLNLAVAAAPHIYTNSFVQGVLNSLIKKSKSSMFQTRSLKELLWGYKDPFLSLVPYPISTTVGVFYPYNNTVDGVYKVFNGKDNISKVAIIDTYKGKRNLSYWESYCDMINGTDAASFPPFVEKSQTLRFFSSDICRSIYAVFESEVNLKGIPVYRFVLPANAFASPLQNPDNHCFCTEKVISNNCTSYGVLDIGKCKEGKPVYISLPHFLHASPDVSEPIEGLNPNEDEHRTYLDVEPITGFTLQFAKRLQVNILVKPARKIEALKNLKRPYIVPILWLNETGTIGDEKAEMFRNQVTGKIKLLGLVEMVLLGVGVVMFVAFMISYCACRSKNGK
Platelet glycoprotein 4 (Rattus norvegicus), sequence (Q07969 whole entry): as above

SMILES | inhibition [1] | inhibition [2] | fold change (FC) [3] | IC50 (Platelet glycoprotein 4) | Activity (Mus musculus) | Activity [4]
C[C@H](N)C(=O)N[C@H](Cc1c[nH]c2ccccc12)C(=O)N[C@@H](C)C(=O)NN(Cc1ccc(C(F)(F)F)cc1)C(=O)N[C@H](Cc1ccccc1)C(=O)N[C@@H](CCCCN)C(N)=O | inactive | inactive |  |  |  | 
COc1cc(Cl)c(CN(NC(=O)[C@H](C)NC(=O)[C@@H](Cc2c[nH]c3ccccc23)NC(=O)[C@@H](N)Cc2cnc[nH]2)C(=O)N[C@H](Cc2ccccc2)C(=O)N[C@@H](CCCCN)C(N)=O)c(Cl)c1 | inactive | inactive |  |  |  | 
C[C@H](N)C(=O)N[C@H](Cc1c[nH]c2ccccc12)C(=O)N[C@@H](C)C(=O)NN(Cc1ccc(Br)cc1)C(=O)N[C@H](Cc1ccccc1)C(=O)N[C@@H](CCCCN)C(N)=O |  |  | 2.2 | 12.5 µM | inactive | 
C[C@H](N)C(=O)N[C@H](Cc1c[nH]c2ccccc12)C(=O)N[C@@H](C)C(=O)NN(Cc1ccc(O)cc1)C(=O)N[C@H](Cc1ccccc1)C(=O)N[C@@H](CCCCN)C(N)=O (H-A[dW]A[azaTyr][dF]K-NH2) |  |  | 3.1 | 9.19 µM | inactive | 
C[C@H](NC(=O)[C@@H](Cc1c[nH]c2ccccc12)NC(=O)[C@@H](N)Cc1cnc[nH]1)C(=O)NN(Cc1ccc(O)cc1)C(=O)N[C@H](Cc1ccccc1)C(=O)N[C@@H](CCCCN)C(N)=O (H-H[dW]A[azaTyr][dF]K-NH2) | inactive | inactive | 14.8 | 1.9 µM | Active | 
C[C@H](NC(=O)[C@@H](Cc1c[nH]c2ccccc12)NC(=O)[C@@H](N)Cc1cnc[nH]1)C(=O)NN(Cc1c[nH]nn1)C(=O)N[C@H](Cc1ccccc1)C(=O)N[C@@H](CCCCN)C(N)=O | inactive | inactive |  |  |  | 
Cc1cc(F)cc(C)c1CN(NC(=O)[C@H](C)NC(=O)[C@@H](Cc1c[nH]c2ccccc12)NC(=O)[C@@H](N)Cc1cnc[nH]1)C(=O)N[C@H](Cc1ccccc1)C(=O)N[C@@H](CCCCN)C(N)=O | Active | Active | 5 | 5.58 µM | inactive | 
C[C@H](NC(=O)[C@@H](Cc1c[nH]c2ccccc12)NC(=O)[C@@H](N)Cc1cnc[nH]1)C(=O)NN(Cc1ccccc1)C(=O)N[C@H](Cc1ccccc1)C(=O)N[C@@H](CCCCN)C(N)=O (H-H[dW]A[azaPhe][dF]K-NH2) | inactive | inactive | 2.8 | 10.1 µM | inactive | 
C[C@H](N)C(=O)N[C@H](Cc1c[nH]c2ccccc12)C(=O)N[C@@H](C)C(=O)NN(Cc1ccccc1)C(=O)N[C@H](Cc1ccccc1)C(=O)N[C@@H](CCCCN)C(N)=O (H-A[dW]A[azaPhe][dF]K-NH2) | Active | Active | 1.5 | 19 µM | inactive | 
C[C@H](N)C(=O)N[C@H](Cc1c[nH]c2ccccc12)C(=O)N[C@@H](C)C(=O)NN(Cc1ccc([N+](=O)[O-])cc1)C(=O)N[C@H](Cc1ccccc1)C(=O)N[C@@H](CCCCN)C(N)=O | Active | Active |  |  |  | 
Cc1cccc(C)c1CN(NC(=O)[C@H](C)NC(=O)[C@@H](Cc1c[nH]c2ccccc12)NC(=O)[C@@H](N)Cc1cnc[nH]1)C(=O)N[C@H](Cc1ccccc1)C(=O)N[C@@H](CCCCN)C(N)=O | Active | Active | 5.1 | 5.51 µM | inactive | 
C[C@H](NC(=O)[C@@H](Cc1c[nH]c2ccccc12)NC(=O)[C@@H](N)Cc1cnc[nH]1)C(=O)NN(Cc1c(F)cc(F)cc1F)C(=O)N[C@H](Cc1ccccc1)C(=O)N[C@@H](CCCCN)C(N)=O | inactive | inactive |  |  |  | 
C[C@H](NC(=O)[C@@H](Cc1c[nH]c2ccccc12)NC(=O)[C@@H](N)Cc1cnc[nH]1)C(=O)NN(Cc1ccc(Cl)cc1)C(=O)N[C@H](Cc1ccccc1)C(=O)N[C@@H](CCCCN)C(N)=O | Active | Active | 3.4 | 8.36 µM |  | Toxic
C[C@H](N)C(=O)N[C@H](Cc1c[nH]c2ccccc12)C(=O)N[C@@H](C)C(=O)NN(Cc1ccc(Cl)cc1)C(=O)N[C@H](Cc1ccccc1)C(=O)N[C@@H](CCCCN)C(N)=O |  |  | 5.7 | 4.94 µM | Active | 
COc1ccc(CN(NC(=O)[C@H](C)NC(=O)[C@@H](Cc2c[nH]c3ccccc23)NC(=O)[C@@H](N)Cc2cnc[nH]2)C(=O)N[C@H](Cc2ccccc2)C(=O)N[C@@H](CCCCN)C(N)=O)cc1 | Active | Active | 3.7 | 7.51 µM | Active | 
C[C@H](NC(=O)[C@@H](Cc1c[nH]c2ccccc12)NC(=O)[C@@H](N)Cc1cnc[nH]1)C(=O)NN(Cc1ccc([N+](=O)[O-])cc1)C(=O)N[C@H](Cc1ccccc1)C(=O)N[C@@H](CCCCN)C(N)=O | inactive | inactive |  |  |  | 
CC(C)Oc1ccc(CN(NC(=O)[C@H](C)NC(=O)[C@@H](Cc2c[nH]c3ccccc23)NC(=O)[C@@H](N)Cc2cnc[nH]2)C(=O)N[C@H](Cc2ccccc2)C(=O)N[C@@H](CCCCN)C(N)=O)cc1 | inactive | inactive |  |  |  | 
COc1cc(Cl)cc(Cl)c1CN(NC(=O)[C@H](C)NC(=O)[C@@H](Cc1c[nH]c2ccccc12)NC(=O)[C@@H](N)Cc1cnc[nH]1)C(=O)N[C@H](Cc1ccccc1)C(=O)N[C@@H](CCCCN)C(N)=O | inactive | inactive |  |  |  | 
C[C@H](NC(=O)[C@@H](Cc1c[nH]c2ccccc12)NC(=O)[C@@H](N)Cc1cnc[nH]1)C(=O)NN(Cc1cccc(O)c1)C(=O)N[C@H](Cc1ccccc1)C(=O)N[C@@H](CCCCN)C(N)=O | inactive | inactive |  | 28.2 µM | inactive | 
C[C@H](N)C(=O)N[C@H](Cc1c[nH]c2ccccc12)C(=O)N[C@@H](C)C(=O)NN(Cc1ccc(I)cc1)C(=O)N[C@H](Cc1ccccc1)C(=O)N[C@@H](CCCCN)C(N)=O | inactive | inactive |  |  |  | 
C[C@H](NC(=O)[C@@H](Cc1c[nH]c2ccccc12)NC(=O)[C@@H](N)Cc1cnc[nH]1)C(=O)NN(Cc1ccc(F)cc1)C(=O)N[C@H](Cc1ccccc1)C(=O)N[C@@H](CCCCN)C(N)=O | Active | Active | 4.6 | 6.06 µM | Active | 
C[C@H](NC(=O)[C@@H](Cc1c[nH]c2ccccc12)NC(=O)[C@@H](N)Cc1cnc[nH]1)C(=O)NN(Cc1ccc(Br)cc1)C(=O)N[C@H](Cc1ccccc1)C(=O)N[C@@H](CCCCN)C(N)=O | Active | Active | 7.8 | 3.6 µM | Active | 
CCCOc1ccc(CN(NC(=O)[C@H](C)NC(=O)[C@@H](Cc2c[nH]c3ccccc23)NC(=O)[C@@H](N)Cc2cnc[nH]2)C(=O)N[C@H](Cc2ccccc2)C(=O)N[C@@H](CCCCN)C(N)=O)cc1 | Active | Active | 17.1 | 1.65 µM |  | Toxic
Cc1[nH]c2ccccc2c1C[C@@H](NC(=O)[C@@H](N)Cc1c[nH]cn1)C(=O)N[C@@H](C)C(=O)N[C@@H](Cc1c[nH]c2ccccc12)C(=O)N[C@H](Cc1ccccc1)C(=O)N[C@@H](CCCCN)C(N)=O (H-H[dTrp(2-Me)]AW[dF]K-NH2) |  |  | 18.1 |  |  | 
C[C@H](NC(=O)[C@@H](Cc1c[nH]c2ccccc12)NC(=O)[C@@H](N)Cc1cnc[nH]1)C(=O)NN(CCCCCN)C(=O)N[C@H](Cc1ccccc1)C(=O)N[C@@H](CCCCN)C(N)=O | inactive | inactive |  |  |  | 
C[C@H](NC(=O)[C@@H](Cc1c[nH]c2ccccc12)NC(=O)[C@@H](N)Cc1cnc[nH]1)C(=O)NN(Cc1ccc(C(F)(F)F)cc1)C(=O)N[C@H](Cc1ccccc1)C(=O)N[C@@H](CCCCN)C(N)=O | inactive | inactive |  |  |  | 
COc1ccc(CN(NC(=O)[C@H](C)NC(=O)[C@@H](Cc2c[nH]c3ccccc23)NC(=O)[C@H](C)N)C(=O)N[C@H](Cc2ccccc2)C(=O)N[C@@H](CCCCN)C(N)=O)cc1 | Active | Active |  |  |  | 
C[C@H](NC(=O)[C@@H](Cc1c[nH]c2ccccc12)NC(=O)[C@@H](N)Cc1cnc[nH]1)C(=O)NN(Cc1ccc(I)cc1)C(=O)N[C@H](Cc1ccccc1)C(=O)N[C@@H](CCCCN)C(N)=O | inactive | inactive |  |  |  | 
